Test results published in patent US9375416B2, “Epigallocatechin gallate tetramer and vascular endothelial function improving agent containing the same” (SUNTORY HOLDING LIMITED, priority 2008, dated 2016).

How the values were obtained:
Format in all cases: cell-based
Details in all cases: human umbilical vascular endothelial cells, 10 μM, 8 hours, untreated cells as control
GTP-CH1 gene = GTP-CH1 gene expression in cultured vascular endothelial cells (quantitative PCR)
Source text: (§1) With respect to the compounds of Formula (II) and Formula (III) synthesized and purified in Example 1, the effect of them on expression of a gene involved in the vascular endothelial function was studied. Furthermore, as compounds for comparison, an EGCG monomer (manufactured by Wako Pure Chemical Industries Ltd.), theaflavin, theaflavin 3-O-gallate, theaflavin 3′-O-gallate and theaflavin 3,3′-O-digallate (manufactured by Nagara Science Co., Ltd.), which are known to have a vascular endothelial function improving action.
(§2) These compounds were dissolved in sterilized dimethyl sulfoxide (DMSO, manufactured by Nacalai Tesque Inc.) to prepare a solution having a concentration of 10 mM.
(§3) These solutions were diluted 1000 fold by using HuMedia-EG2 medium (manufactured by Kurabo Industries Ltd.) to prepare a solution having a final concentration of 10 μM (the final concentration of DMSO was 0.1 V/V %). These sample solutions each were added to human umbilical vascular endothelial cells (manufactured by Kurabo Industries Ltd.) cultured in a 6-well plate in a proportion of 3 mL/well and incubated at 37° C. under 5% CO2 conditions for 8 hours.
(§4) The cells were recovered by ISOGEN (manufactured by Nippon Gene Co., Ltd.) and RNA was extracted from the cells. Furthermore, RNA was purified by RNeasy Mini Kit (QIAGEN). cDNA was synthesized by a High-Capacity cDNA reverse transcription kit (manufactured by Applied Biosystem) using the total RNA (200 ng) purified as a template and quantitative PCR was performed. Analysis was performed by comparative Ct method with a glyceraldehyde-3-phosphate dehydrogenase gene used as an internal standard. The gene expression change ratio (ratio relative to the control) of a test sample was calculated by using untreated cells as a control.

DDAH2 gene = DDAH2 gene expression in cultured vascular endothelial cells (quantitative PCR)
Source text: as §1, §2, §3, §4

[1] = system: Nox4 subunit gene of NADPH oxidase; assay: Expression of Nox4 subunit gene of NADPH oxidase in cultured vascular endothelial cells (quantitative PCR)
Source text: as §1, §2, §3, §4

eNOS gene = eNOS gene expression in cultured vascular endothelial cells (quantitative PCR)
Source text: as §1, §2, §3, §4

O=C(OC1Cc2c(O)cc(O)c(Cc3c(O)cc(O)c4c3OC(c3cc(O)c(O)c(O)c3)C(OC(=O)c3cc(O)c(O)c(O)c3)C4)c2OC1c1cc(O)c(O)c(O)c1)c1cc(O)c(O)c(O)c1 (centres unmarked) [oolong homobisflavan-A, oolong homobisflavan A]
do not substantially change: expression of the GTP-CH1 gene (gene expression change ratio relative to the control) (GTP-CH1 gene) | expression of the DDAH2 gene (gene expression change ratio relative to the control) (DDAH2 gene) | expression of Nox4 subunit gene of NADPH oxidase (gene expression change ratio relative to the control) [1] | expression of the eNOS gene (gene expression change ratio relative to the control) (eNOS gene)

O=C(OC1Cc2c(cc(O)c(Cc3c(O)cc(O)c4c3OC(c3cc(O)c(O)c(O)c3)C(OC(=O)c3cc(O)c(O)c(O)c3)C4)c2O)OC1c1cc(O)c(O)c(O)c1)c1cc(O)c(O)c(O)c1 (centres unmarked) [oolong homobisflavan-B]
do not substantially change: expression of the GTP-CH1 gene (gene expression change ratio relative to the control) (GTP-CH1 gene) | expression of the DDAH2 gene (gene expression change ratio relative to the control) (DDAH2 gene) | expression of Nox4 subunit gene of NADPH oxidase (gene expression change ratio relative to the control) [1] | expression of the eNOS gene (gene expression change ratio relative to the control) (eNOS gene)

O=C(O[C@@H]1Cc2c(cc(O)c(Cc3c(O)cc4c(c3O)C[C@@H](OC(=O)c3cc(O)c(O)c(O)c3)[C@@H](c3cc(O)c(O)c(O)c3)O4)c2O)O[C@@H]1c1cc(O)c(O)c(O)c1)c1cc(O)c(O)c(O)c1 [oolong homobisflavan-C]
do not substantially change: expression of the GTP-CH1 gene (gene expression change ratio relative to the control) (GTP-CH1 gene) | expression of the DDAH2 gene (gene expression change ratio relative to the control) (DDAH2 gene) | expression of Nox4 subunit gene of NADPH oxidase (gene expression change ratio relative to the control) [1] | expression of the eNOS gene (gene expression change ratio relative to the control) (eNOS gene)

O=C(O[C@@H]1Cc2c(O)cc(O)cc2O[C@@H]1c1cc(O)c(O)c(O)c1-c1c([C@H]2Oc3cc(O)cc(O)c3C[C@H]2OC(=O)c2cc(O)c(O)c(O)c2)cc(O)c(O)c1O)c1cc(O)c(O)c(O)c1 [theasinensin A]
do not substantially change: expression of the GTP-CH1 gene (gene expression change ratio relative to the control) (GTP-CH1 gene) | expression of the DDAH2 gene (gene expression change ratio relative to the control) (DDAH2 gene) | expression of Nox4 subunit gene of NADPH oxidase (gene expression change ratio relative to the control) [1] | expression of the eNOS gene (gene expression change ratio relative to the control) (eNOS gene)

(−)-epigallocatechin-3-O-gallate [EGCG monomer]
do not substantially change: expression of the GTP-CH1 gene (gene expression change ratio relative to the control) (GTP-CH1 gene) | expression of the DDAH2 gene (gene expression change ratio relative to the control) (DDAH2 gene) | expression of Nox4 subunit gene of NADPH oxidase (gene expression change ratio relative to the control) [1] | expression of the eNOS gene (gene expression change ratio relative to the control) (eNOS gene)
